Results from patent publication US10323063B2, “Advanced macromolecule transduction domain (aMTD) sequences for improvement of cell-permeability, polynucleotides encoding the same, method to identify the unique features of aMTDs comprising the same, method to develop the aMTD sequences comprising the same” (CELLIVERY THERAPEUTICS, INC., priority 2014, dated 2019).

Tested on: RAW 264.7 cells
Test: Quantitative cell-permeability of FITC-labeled aMTD- or rPeptide-fused CRA recombinant proteins by flow cytometry
Assay type: cell-based
Description: The aMTDs and rPeptides were fluorescently labeled and compared based on the critical factors for cell-permeability by using flow cytometry and confocal laser scanning microscopy (FIG. 5 to 8). The cellular uptake of the peptide-fused non-functional cargo recombinant proteins could quantitatively be evaluated in flow cytometry, while confocal laser scanning microscopy allows intracellular uptake to be assessed visually. The analysis included recombinant proteins fused to a negative control [rP38] that has opposite characteristics (hydrophilic and aromatic sequence: YYNQSTCGGQCY) to the aMTDs (hydrophobic and aliphatic sequences). Relative cell-permeability (relative fold) of aMTDs to the negative control was also analyzed (TABLE 39 and FIG. 9).
Geometric means of negative control (histidine-tagged rP38-fused CRA recombinant protein) subtracted by that of naked protein (histidine-tagged CRA protein) lacking any peptide (rP38 or aMTD) was standardized as relative fold of 1.
For quantitative cell-permeability, the aMTD- or rPeptide-fused recombinant proteins were conjugated to fluorescein isothiocyanate (FITC) according to the manufacturer's instructions (Sigma-Aldrich, St. Louis, Mo.). RAW 264.7 cells were treated with 10 μM FITC-labeled recombinant proteins for 1 hour at 37° C., washed three times with cold PBS, treated with 0.25% tripsin/EDTA (Sigma-Aldrich, St. Louis, Mo.) for 20 minutes at 37° C. to remove cell-surface bound proteins. Cell-permeability of these recombinant proteins were analyzed by flow cytometry (Guava, Millipore, Darmstadt, Germany) using the FlowJo cytometric analysis software (FIG. 5 to 6). The relative cell-permeability of aMTDs were measured and compared with the negative control (rP38) and reference hydrophobic CPPs (MTM12 and MTD85) (TABLE 47).

[1] = cell-permeability of aMTD-fused CRA recombinant protein relative to negative control (A: rP38)

“879 (AAIVLLPAVVVP; Advanced Macromolecule Transduction Domain (aMTD) Sequences for Improvement of Cell-Permeability) [compound 879]” was tested, and the “Relative Ratio (Fold) A” value (cell-permeability of aMTD-fused CRA recombinant protein relative to negative control rP38 (A type)) was 7.2 Fold, the “Relative Ratio (Fold) C” value (cell-permeability relative to reference CPP MTD85 (C type)) was 2.4 Fold and the “Relative Ratio (Fold) B” value (cell-permeability relative to reference CPP MTM12 (B type)) was 4.8 Fold.
With “908 (VALALAPVVVAP; Advanced Macromolecule Transduction Domain (aMTD) Sequences for Improvement of Cell-Permeability) [compound 908]” the “Relative Ratio (Fold) A” value [1] was 150.6 Fold, the “Relative Ratio (Fold) B” value (cell-permeability of aMTD-fused CRA recombinant protein relative to reference CPP (B: MTM12)) was 100.8 Fold and the “Relative Ratio (Fold) C” value (cell-permeability of aMTD-fused CRA recombinant protein relative to reference CPP (C: MTD85)) was 50.9 Fold.
For “910 (VAALLPAVVVAP; Advanced Macromolecule Transduction Domain (aMTD) Sequences for Improvement of Cell-Permeability) [compound 910]”, the “Relative Ratio (Fold) A” value [1] was 148.5 Fold.
